Among the data in ChEMBL document CHEMBL1137048, “Design and evaluation of novel nonsteroidal dissociating glucocorticoid receptor ligands” (Bioorg Med Chem Lett, 2004) are EC50 and IC50 values, retold here.

For assay [1], the target named is T1, Glucocorticoid receptor (Rattus norvegicus, UniProt P06536).
T1 sequence (P06536 whole entry): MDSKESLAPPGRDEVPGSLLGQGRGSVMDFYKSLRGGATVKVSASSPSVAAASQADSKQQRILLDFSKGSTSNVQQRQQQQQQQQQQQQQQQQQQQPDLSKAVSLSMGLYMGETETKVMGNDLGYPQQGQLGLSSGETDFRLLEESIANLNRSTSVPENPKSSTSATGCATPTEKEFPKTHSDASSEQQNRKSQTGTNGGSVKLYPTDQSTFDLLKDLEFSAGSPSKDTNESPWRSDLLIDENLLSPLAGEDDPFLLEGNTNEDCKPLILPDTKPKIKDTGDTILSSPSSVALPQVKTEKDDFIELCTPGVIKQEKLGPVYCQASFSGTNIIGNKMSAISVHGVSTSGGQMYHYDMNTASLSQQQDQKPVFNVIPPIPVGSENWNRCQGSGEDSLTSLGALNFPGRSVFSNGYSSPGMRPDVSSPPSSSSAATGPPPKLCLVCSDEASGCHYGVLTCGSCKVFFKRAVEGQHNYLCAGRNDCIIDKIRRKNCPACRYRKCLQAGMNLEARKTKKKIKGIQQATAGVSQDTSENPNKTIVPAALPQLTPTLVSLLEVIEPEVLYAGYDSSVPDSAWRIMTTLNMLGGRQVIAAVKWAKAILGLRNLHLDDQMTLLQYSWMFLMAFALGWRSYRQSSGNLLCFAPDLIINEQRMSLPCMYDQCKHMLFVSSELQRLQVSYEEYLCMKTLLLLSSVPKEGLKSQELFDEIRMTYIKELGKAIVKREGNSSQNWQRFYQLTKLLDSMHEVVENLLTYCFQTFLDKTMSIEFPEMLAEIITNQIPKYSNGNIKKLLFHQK
In words: Repression of NF-kappaB-luciferase reporter activity in TPA stimulated U2OS cells expressing rat glucocorticoid receptor. It is filed as functional, cell-based. A general note: Reporter assays use an easily measured gene product as a stand-in for the process of interest.

Assay [2] addresses T1, Glucocorticoid receptor. In words: Inhibition against U2OS cells expressing rat Glucocorticoid receptor. It is filed as cell-based.
In assay [3] the target is T1, Glucocorticoid receptor. Kind of assay: Effective concentration against MMTV in transactivation assay in U2OS cells expressing rat GR. It is filed as functional, cell-based.
Assay [4] deals with T1, Glucocorticoid receptor. In words: Repression of AP1-luciferase reporter activity in TPA-stimulated U2OS cells expressing rat glucocorticoid receptor. It is filed as functional, cell-based.
The target of assay [5] is T2, Glucocorticoid receptor (Homo sapiens, UniProt P04150).
T2 sequence (P04150 whole entry): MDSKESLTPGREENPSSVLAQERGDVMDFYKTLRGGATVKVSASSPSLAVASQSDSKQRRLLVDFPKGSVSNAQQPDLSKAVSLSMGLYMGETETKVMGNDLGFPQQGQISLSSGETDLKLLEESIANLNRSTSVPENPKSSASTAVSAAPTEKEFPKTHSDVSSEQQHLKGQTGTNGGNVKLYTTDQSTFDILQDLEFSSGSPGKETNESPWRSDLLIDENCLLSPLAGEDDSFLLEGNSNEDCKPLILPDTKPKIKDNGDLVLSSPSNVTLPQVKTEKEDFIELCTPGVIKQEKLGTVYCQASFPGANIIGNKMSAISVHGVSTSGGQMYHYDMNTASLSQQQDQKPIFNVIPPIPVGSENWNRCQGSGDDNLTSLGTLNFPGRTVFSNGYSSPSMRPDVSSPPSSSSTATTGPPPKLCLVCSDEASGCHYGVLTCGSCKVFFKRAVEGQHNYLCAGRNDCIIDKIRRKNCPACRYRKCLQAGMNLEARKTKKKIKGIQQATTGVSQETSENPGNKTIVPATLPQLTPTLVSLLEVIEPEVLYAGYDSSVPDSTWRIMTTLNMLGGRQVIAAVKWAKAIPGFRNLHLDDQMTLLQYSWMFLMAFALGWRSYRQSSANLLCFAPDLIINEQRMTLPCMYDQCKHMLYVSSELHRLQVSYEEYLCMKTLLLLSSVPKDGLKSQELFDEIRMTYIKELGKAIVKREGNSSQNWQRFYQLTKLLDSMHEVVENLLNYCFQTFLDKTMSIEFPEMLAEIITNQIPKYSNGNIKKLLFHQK
Kind of assay: Binding affinity for recombinant human glucocorticoid receptor.

Assay [6] deals with T2, Glucocorticoid receptor. Kind of assay: Effective concentration in CV-1 cell transactivation assay. It is filed as functional, cell-based.

The term EC50 denotes the concentration that produces a half-maximal response. The term IC50 denotes the concentration that inhibits the measured activity by half.

Some results are limits rather than exact numbers.

On to `CCCCCCCCC(O)[C@H]1CCCC2=Cc3c(cnn3-c3ccc(F)cc3)C[C@@]21C` (stereo partly drawn), for which the EC50 at Glucocorticoid receptor [1] is 4 nM; on Glucocorticoid receptor [3], 4 nM; at Glucocorticoid receptor [4] it was 6 nM. Moreover, half-maximal inhibition on Glucocorticoid receptor [2] (IC50) required 4.9 nM.

In the case of `C[C@]12Cc3cnn(-c4ccc(F)cc4)c3C=C1CCC[C@@H]2C(O)c1cccc(O)c1` (stereo partly drawn), the EC50 at Glucocorticoid receptor [1], on Glucocorticoid receptor [3] and on Glucocorticoid receptor [4] was 3 nM in each case. For the same compound, the IC50 on Glucocorticoid receptor [2] is 5.2 nM.

As to `Cc1ccc(C(O)[C@H]2CCCC3=Cc4c(cnn4-c4ccc(F)cc4)C[C@@]32C)cc1` (stereo partly drawn), the EC50 at Glucocorticoid receptor [1] came to 8 nM; on Glucocorticoid receptor [3], 4 nM; at Glucocorticoid receptor [4], 3 nM. At Glucocorticoid receptor [2], the IC50 was determined as 2.5 nM.

On to `C[C@]12Cc3cnn(-c4ccc(F)cc4)c3C=C1CCC[C@@H]2C(O)c1csc2ccccc12` (stereo partly drawn), for which the results for the EC50 at Glucocorticoid receptor [1], at Glucocorticoid receptor [3] and at Glucocorticoid receptor [4] were 22 nM, 20 nM and 1.8 nM, respectively. Further, at Glucocorticoid receptor [2], the IC50 was found to be 1.8 nM.

On to `COc1cc(C(O)C2CCCC3=CC(=O)CCC32C)cc(OC)c1OC` (stereo not drawn), for which the IC50 at Glucocorticoid receptor [5] is more than 2000 nM.

With `COc1cccc(C(O)[C@H]2CCCC3=Cc4c(cnn4-c4ccc(F)cc4)C[C@@]32C)c1` (stereo partly drawn), the EC50 on Glucocorticoid receptor [1] is 3 nM; on Glucocorticoid receptor [3], 4 nM; on Glucocorticoid receptor [4], 19 nM. The compound also had an IC50 against Glucocorticoid receptor [2] of 2.3 nM.

In the case of `C[C@]12Cc3cnn(-c4ccc(F)cc4)c3C=C1CCC[C@@H]2C(O)c1ccc(C(F)(F)F)cc1` (stereo partly drawn), the EC50 came to 24 nM at Glucocorticoid receptor [1], 31 nM at Glucocorticoid receptor [3] and 31 nM at Glucocorticoid receptor [4]. Also, the midpoint of inhibition at Glucocorticoid receptor [2], the IC50, lay at 14 nM.

Regarding `C[C@]12Cc3cnn(-c4ccc(F)cc4)c3C=C1CCC[C@@H]2C(O)c1ccc(O)cc1` (stereo partly drawn), the values for the EC50 on Glucocorticoid receptor [1], at Glucocorticoid receptor [3] and at Glucocorticoid receptor [4] were 12 nM, 20 nM and 16 nM, respectively. The same compound gave an IC50 on Glucocorticoid receptor [2] of 6.6 nM.

On to `CC12CCC(=O)C=C1CCCC2C(O)c1ccccc1` (stereo not drawn), for which the IC50 at Glucocorticoid receptor [5] worked out at 2100 nM.

With `C[C@]12Cc3cnn(-c4ccc(F)cc4)c3C=C1CCC[C@@H]2C(O)CCc1ccccc1` (stereo partly drawn), the EC50 on Glucocorticoid receptor [1] worked out at 3 nM; on Glucocorticoid receptor [3], 11 nM; on Glucocorticoid receptor [4], 7 nM. Moreover, the IC50 on Glucocorticoid receptor [2] is 8.6 nM.

For the compound `CC12CCC(=O)C=C1CCCC2C(O)c1csc2ccccc12` (stereo not drawn), the IC50 at Glucocorticoid receptor [5] was 165 nM.

For `C[C@]12Cc3cnn(-c4ccc(F)cc4)c3C=C1CCC[C@@H]2C(O)c1ccc(Cl)cc1` (stereo partly drawn), the EC50 on Glucocorticoid receptor [1] came to 4 nM; at Glucocorticoid receptor [3] it was 9 nM; at Glucocorticoid receptor [4], 3 nM. This compound also showed an IC50 at Glucocorticoid receptor [2] of 7 nM.

Consider `C[C@]12Cc3cnn(-c4ccc(F)cc4)c3C=C1CCC[C@@H]2C(O)Cc1ccccc1` (stereo partly drawn), for which the EC50 on Glucocorticoid receptor [1] came to 11 nM; at Glucocorticoid receptor [3], 9 nM; on Glucocorticoid receptor [4], 17 nM. The compound further returned a concentration for half-maximal inhibition (IC50) against Glucocorticoid receptor [2] of 5.5 nM.

Turning to `CCCCC(O)[C@H]1CCCC2=Cc3c(cnn3-c3ccc(F)cc3)C[C@@]21C` (stereo partly drawn), the figures for the EC50 at Glucocorticoid receptor [1], on Glucocorticoid receptor [3] and at Glucocorticoid receptor [4] were 3 nM, 5 nM and 8 nM, respectively. For the same compound, 0.7 nM corresponded to half-maximal inhibition against Glucocorticoid receptor [2] (IC50).

`C[C@]12Cc3cnn(-c4ccc(F)cc4)c3C=C1CCC[C@@H]2C(O)c1ccc(Oc2ccccc2)cc1` (stereo partly drawn) yielded an IC50 on Glucocorticoid receptor [2] of 15.5 nM.

As for `C[C@]12Cc3cnn(-c4ccc(F)cc4)c3C=C1CCC[C@@H]2C(O)c1ccccc1` (stereo partly drawn), the EC50 on Glucocorticoid receptor [1] amounted to 4 nM; on Glucocorticoid receptor [3], 3 nM; at Glucocorticoid receptor [4], 3 nM. The compound also returned an IC50 against Glucocorticoid receptor [2] of 7.9 nM.

`C[C@@H]1C[C@H]2C3CCC4=CC(=O)C=C[C@]4(C)[C@@]3(F)[C@@H](O)C[C@]2(C)[C@@]1(O)C(=O)O` (stereo partly drawn): the EC50 on Glucocorticoid receptor [1] was 0.3 nM; at Glucocorticoid receptor [6], 5.6 nM; at Glucocorticoid receptor [3] it was 0.2 nM; at Glucocorticoid receptor [4] it was 0.2 nM. Also, the IC50 on Glucocorticoid receptor [5] stood at 5 nM; against Glucocorticoid receptor [2], 1.4 nM.
